Laboratory results reported in patent US20250170101A1, “MONOACYLGLYCEROL LIPASE INHIBITORS AND USE THEREOF FOR THE TREATMENT AND MANAGEMENT OF PAIN AND RELATED CONDITIONS” (Psy Therapeutics, Inc., priority 2021, published 2025).
Where two headings read alike, the source gives them in different places.

Test: Plasma and brain concentrations after single intraperitoneal administration, Examples 23 and 24
Format: in vivo, male C57BL/6 mice
Conditions: male, C57BL/6, mouse, IP 20 mg/kg
Description: This experiment was performed to determine plasma pharmacokinetics and estimate 2-AG levels in male C57BL/6 mice brain following a single intraperitoneal administration of Compound-74 (Dose: 5, 15, 50 and 150 mg/kg). The experiment was repeated at 150 mg/kg on 3 separate test dates to obtain the data shown in FIG. 1A (plasma and brain concentration of Compound 74 30 minutes after IP injection), and on the first and third test dates to obtain the data shown in FIG. 1B (brain concentration of 2-AG30 minutes after IP injection of Compound 74). • Compound 74, Molecular Wt.: 405.46 (Freebase), % Purity: Considered 100%. • Formulation: DMSO • Dose: 5, 15, 50 and 150 mg/kg • Dose volume: 2 mL/kg • Feeding regimen: freely fed • Groups:
Study Design: A total of thirty male mice were used into the study and divided in to five groups with six mice in each group (n=6 mice/group/treatment design). Animals in Group 1 to Group 4 were administered intraperitoneally with Compound 74 solution formulation at 5, 15, 50 and 150 mg/kg dose, respectively. Animals in Group 5 were administered intraperitoneally with vehicle at 2 mL/kg dose. Blood and brain samples were collected at 0.5 h post dose. Mice were euthanized by cervical dislocation and brain samples were dissected rapidly and snap frozen in liquid nitrogen, weighed and homogenized in 2 mL of acetonitrile containing 2-AGd5. Blood samples were centrifuged at 4000 rpm for 10 minutes at 4° C. Plasma was harvested and separated in pre-labeled tubes. All samples were stored below −70° C. until bioanalysis.
Analysis: Brain samples were processed for 2-AG estimation. 2-AG levels were the detected values. Plasma concentrations were determined by fit for purpose LC-MS/MS method. LLOQ: 5.09 ng/mL (Plasma and brain)
This experiment was performed to determine plasma pharmacokinetics and estimate 2-AG levels in male C57BL/6 mice brain following a single intraperitoneal administration of Compound-473 (Dose: 20 mg/kg). • Compound 473, Molecular Wt.: 463.41 (Freebase), % Purity: >98%. • Formulation: DMSO • Dose: 20 mg/kg • Dose volume: 10 mL/kg • Feeding regimen: Food and water ad libitum • Groups:
Study Design: A total of twelve C57BL/6 male mice were used in this study. Six animals were administered intraperitoneally with solution formulation of PSY-05-00473-002 at 20 mg/kg dose. Six animals were administered vehicle (5% NMP, 5% Solutol HS15 and 90% Normal saline) intraperitoneally at 10 mL/kg dose volume. Blood samples (approximately 60 μL) were collected under light isoflurane anesthesia from a set of six mice at 0.5 h. Plasma was harvested by centrifugation of blood and stored at −70±10° C. until analysis. After blood collection, mice were euthanized by cervical dislocation and brain samples were dissected rapidly and snapped frozen in liquid nitrogen and stored at −80. To homogenize, removed brain samples from the freezer, were divided into two equal hemispheres and weighed while still in frozen condition, and begun homogenization/extraction procedure without allowing the brain samples to thaw. One part is used for PK estimation and the other part is used for 2-AG estimation.
Analysis: For PK estimation, brain samples were homogenized in 2 volumes of PBS of brain weight. Total homogenate volume was three times of the brain weight. For 2-AG estimation, the frozen brain samples were homogenized in 2 mL acetonitrile containing 2-AGd5 (8.88 nmoles) will be incubated overnight at −20° C. to precipitate proteins. Blood samples were centrifuged at 10000 rpm for 10 minutes at 4° C. All samples were stored below −70° C. until bioanalysis. Plasma and brain homogenate samples were quantified by fit-for-purpose LC-MS/MS method (LLOQ: 1.02 ng/mL for plasma and 2.03 ng/mL for brain).

**Q.** Which results are given for `O=C(c1cc(O)ccc1F)N1CC2(CC(n3cc(C(F)(F)F)c(-c4ccccc4F)n3)C2)C1` (single isomer, unassigned) [Compound 473, (2-fluoro-5-hydroxyphenyl){6-[3-(o-fluorophenyl)-4-(trifluoromethyl)-1-pyrazolyl]-2-aza-2-spiro[3.3]heptyl}methanone]?
**A.** concentration at 0.5 h (brain, read-out: Brain Concentration (ng/g), Mean): 2630 ng/g; Kp at 0.5 h (brain/plasma, read-out: Brain/Plasma Ratio (kp), Mean): 1.44; concentration at 0.5 h (plasma, read-out: Plasma Concentration (ng/mL), Mean): 1820 ng/mL
